According to the supplement of paper PMC10307832:

Legend:
Assay in all cases: relative viability (nuclei count vs DMSO), 5 days (fraction); higher = more cells survive
NCI-H650 = tested on: NCI-H650
Summary of the method: (§1)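 Dosing by pin tool came one day after lung cancer cell lines were seeded in 1536-well plates, using either one drug or a fixed anchor-drug dose plus five library-drug doses (not always all listed) in √10 steps. After 5 days, nuclei were counted on 4× images. Relative viability is treated-well nuclei count divided by vehicle-well nuclei count, and values are medians of duplicate plates.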

NCI-H1355 = tested on: NCI-H1355
Summary of the method: as §1

NCI-H838 = tested on: NCI-H838
Summary of the method: as §1

NCI-H2023 = tested on: NCI-H2023
Summary of the method: as §1

EPLC-272H = tested on: EPLC-272H
Summary of the method: as §1

NCI-H1993 = tested on: NCI-H1993
Summary of the method: as §1

PC-14 = tested on: PC-14
Summary of the method: as §1

HARA = tested on: HARA
Summary of the method: as §1

HCC-15 = tested on: HCC-15
Summary of the method: as §1

LC-2-ad = tested on: LC-2-ad
Summary of the method: as §1

ABC-1 = tested on: ABC-1
Summary of the method: as §1

HCC-78 = tested on: HCC-78
Summary of the method: as §1

COR-L23 = tested on: COR-L23
Summary of the method: as §1

NCI-H1915 = tested on: NCI-H1915
Summary of the method: as §1

NCI-H358 = tested on: NCI-H358
Summary of the method: as §1

SW 1573 = tested on: SW 1573
Summary of the method: as §1

NCI-H2347 = tested on: NCI-H2347
Summary of the method: as §1

NCI-H2342 = tested on: NCI-H2342
Summary of the method: as §1

NCI-H2126 = tested on: NCI-H2126
Summary of the method: as §1

NCI-H2085 = tested on: NCI-H2085
Summary of the method: as §1

UMC-11 = tested on: UMC-11
Summary of the method: as §1

NCI-H1651 = tested on: NCI-H1651
Summary of the method: as §1

LU99A = tested on: LU99A
Summary of the method: as §1

## C=C1C(=O)O[C@@H](CCCCCCCC)[C@@H]1C(=O)O [C-75] + COc1cc2c(Oc3ccc(NC(=O)C4(C(=O)Nc5ccc(F)cc5)CC4)cc3F)ccnc2cc1OCCCN1CCOCC1 [Foretinib] (partner 0.25 µM)
NCI-H650; first compound 0.08 µM
  relative viability: 1
NCI-H650; first compound 0.253 µM
  relative viability: 0.818
NCI-H650; first compound 0.8 µM
  relative viability: 1.04
NCI-H650; first compound 2.53 µM
  relative viability: 0.995
NCI-H650; first compound 8 µM
  relative viability: 0.993
NCI-H1355; first compound 0.08 µM
  relative viability: 0.948
NCI-H1355; first compound 0.253 µM
  relative viability: 0.892
NCI-H1355; first compound 0.8 µM
  relative viability: 0.972
NCI-H1355; first compound 2.53 µM
  relative viability: 0.927
NCI-H1355; first compound 8 µM
  relative viability: 0.958
NCI-H838; first compound 0.08 µM
  relative viability: 1.06
NCI-H838; first compound 0.8 µM
  relative viability: 0.948
NCI-H838; first compound 2.53 µM
  relative viability: 0.861
NCI-H838; first compound 8 µM
  relative viability: 0.964
NCI-H2023; first compound 0.08 µM
  relative viability: 0.798
NCI-H2023; first compound 0.253 µM
  relative viability: 1.05
NCI-H2023; first compound 0.8 µM
  relative viability: 0.714
NCI-H2023; first compound 2.53 µM
  relative viability: 0.943
NCI-H2023; first compound 8 µM
  relative viability: 1.07
EPLC-272H; first compound 0.08 µM
  relative viability: 0.686
EPLC-272H; first compound 0.253 µM
  relative viability: 0.936
EPLC-272H; first compound 0.8 µM
  relative viability: 0.554
EPLC-272H; first compound 2.53 µM
  relative viability: 0.429
EPLC-272H; first compound 8 µM
  relative viability: 0.386
NCI-H1993; first compound 0.08 µM
  relative viability: 0.898
NCI-H1993; first compound 0.253 µM
  relative viability: 0.782
NCI-H1993; first compound 0.8 µM
  relative viability: 0.851
NCI-H1993; first compound 2.53 µM
  relative viability: 0.786
NCI-H1993; first compound 8 µM
  relative viability: 0.88
PC-14; first compound 0.08 µM
  relative viability: 0.949
PC-14; first compound 0.253 µM
  relative viability: 0.911
PC-14; first compound 0.8 µM
  relative viability: 0.956
PC-14; first compound 2.53 µM
  relative viability: 0.74
PC-14; first compound 8 µM
  relative viability: 0.891
HARA; first compound 0.08 µM
  relative viability: 0.822
HARA; first compound 0.253 µM
  relative viability: 0.93
HARA; first compound 0.8 µM
  relative viability: 0.819
HARA; first compound 2.53 µM
  relative viability: 0.769
HARA; first compound 8 µM
  relative viability: 0.979
HCC-15; first compound 0.08 µM
  relative viability: 0.949
HCC-15; first compound 0.253 µM
  relative viability: 1.01
HCC-15; first compound 0.8 µM
  relative viability: 0.956
HCC-15; first compound 2.53 µM
  relative viability: 1
HCC-15; first compound 8 µM
  relative viability: 0.931
LC-2-ad; first compound 0.08 µM
  relative viability: 0.937
LC-2-ad; first compound 0.253 µM
  relative viability: 0.8
LC-2-ad; first compound 0.8 µM
  relative viability: 0.859
LC-2-ad; first compound 2.53 µM
  relative viability: 0.724
LC-2-ad; first compound 8 µM
  relative viability: 0.889
ABC-1; first compound 0.08 µM
  relative viability: 1.16
ABC-1; first compound 0.253 µM
  relative viability: 1.24
ABC-1; first compound 0.8 µM
  relative viability: 0.913
ABC-1; first compound 2.53 µM
  relative viability: 1.18
ABC-1; first compound 8 µM
  relative viability: 0.81
HCC-78; first compound 0.08 µM
  relative viability: 0.553
HCC-78; first compound 0.253 µM
  relative viability: 0.554
HCC-78; first compound 0.8 µM
  relative viability: 0.577
HCC-78; first compound 2.53 µM
  relative viability: 0.421
HCC-78; first compound 8 µM
  relative viability: 0.687
COR-L23; first compound 0.08 µM
  relative viability: 0.903
COR-L23; first compound 0.253 µM
  relative viability: 1
COR-L23; first compound 0.8 µM
  relative viability: 0.856
COR-L23; first compound 2.53 µM
  relative viability: 0.9
COR-L23; first compound 8 µM
  relative viability: 0.965
NCI-H1915; first compound 0.08 µM
  relative viability: 1.04
NCI-H1915; first compound 0.253 µM
  relative viability: 1.1
NCI-H1915; first compound 0.8 µM
  relative viability: 1.03
NCI-H1915; first compound 2.53 µM
  relative viability: 1.07
NCI-H1915; first compound 8 µM
  relative viability: 1.05
NCI-H358; first compound 0.08 µM
  relative viability: 0.748
NCI-H358; first compound 0.253 µM
  relative viability: 0.623
NCI-H358; first compound 0.8 µM
  relative viability: 0.565
NCI-H358; first compound 2.53 µM
  relative viability: 0.595
NCI-H358; first compound 8 µM
  relative viability: 0.511
SW 1573; first compound 0.08 µM
  relative viability: 1.03
SW 1573; first compound 0.253 µM
  relative viability: 0.943
SW 1573; first compound 0.8 µM
  relative viability: 0.951
SW 1573; first compound 2.53 µM
  relative viability: 0.74
SW 1573; first compound 8 µM
  relative viability: 0.731
NCI-H2347; first compound 0.08 µM
  relative viability: 0.83
NCI-H2347; first compound 0.253 µM
  relative viability: 1.21
NCI-H2347; first compound 2.53 µM
  relative viability: 0.876
NCI-H2347; first compound 8 µM
  relative viability: 0.472
NCI-H2342; first compound 0.08 µM
  relative viability: 1.11
NCI-H2342; first compound 0.253 µM
  relative viability: 1.13
NCI-H2342; first compound 0.8 µM
  relative viability: 1.04
NCI-H2342; first compound 2.53 µM
  relative viability: 0.923
NCI-H2342; first compound 8 µM
  relative viability: 1.17
NCI-H2126; first compound 0.08 µM
  relative viability: 1.1
NCI-H2126; first compound 0.253 µM
  relative viability: 1.27
NCI-H2126; first compound 0.8 µM
  relative viability: 1.2
NCI-H2126; first compound 2.53 µM
  relative viability: 1.08
NCI-H2126; first compound 8 µM
  relative viability: 1.07
NCI-H2085; first compound 0.08 µM
  relative viability: 0.842
NCI-H2085; first compound 0.253 µM
  relative viability: 0.879
NCI-H2085; first compound 0.8 µM
  relative viability: 0.921
NCI-H2085; first compound 2.53 µM
  relative viability: 0.782
NCI-H2085; first compound 8 µM
  relative viability: 1.14
UMC-11; first compound 0.08 µM
  relative viability: 0.99
UMC-11; first compound 0.253 µM
  relative viability: 1.04
UMC-11; first compound 0.8 µM
  relative viability: 0.978
UMC-11; first compound 2.53 µM
  relative viability: 0.681
UMC-11; first compound 8 µM
  relative viability: 0.69
NCI-H1651; first compound 0.08 µM
  relative viability: 0.83
NCI-H1651; first compound 0.253 µM
  relative viability: 0.944
NCI-H1651; first compound 0.8 µM
  relative viability: 0.725
NCI-H1651; first compound 2.53 µM
  relative viability: 0.668
NCI-H1651; first compound 8 µM
  relative viability: 0.958
LU99A; first compound 0.08 µM
  relative viability: 0.809
LU99A; first compound 0.253 µM
  relative viability: 0.71
LU99A; first compound 0.8 µM
  relative viability: 0.831
LU99A; first compound 2.53 µM
  relative viability: 0.783
LU99A; first compound 8 µM
  relative viability: 0.63
